Data as given in publication PMC5011342, “A high throughput drug screening assay to identify compounds that promote oligodendrocyte differentiation using acutely dissociated and purified oligodendrocyte precursor cells” (BMC Research Notes, 2016).
Structures can show the parent of a compound that is named as a salt. Where two headings read alike, the source gives them in different places.

Columns and labels:
[1] = tested on: acutely dissociated and purified rat OPCs; experiment: Acute OL differentiation assay (MBP expression/cell, immunofluorescent image quantification); type: cell-based; conditions: sheet "All OLga data"; for activation at 0.08 µM / activation at 0.4 µM / activation at 2 µM / activation at 10 µM: Rattus norvegicus; for activation at 0.08 µM: test compound at 0.08 uM, read-out: 0.08 uM (% Quet)
Procedure, shortened: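 This acute differentiation assay used purified rat OPCs from postnatal day 6–7 pups, seeded into PDL/laminin-coated 96-well plates in differentiation medium lacking PDGF and FGF. Compounds were applied in quadruplicate after a 1–2 h preincubation at 37 °C, 10 % CO2, with 0.1 % DMSO negative and 40 ng/ml T3 positive controls in eight wells. After fixation on DIV4, anti-MBP immunofluorescence images yielded MBP expression/cell.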

expanded OPCs = experiment: cells; conditions: for viability at 0.1 µM / viability at 1 µM / viability at 10 µM: Rattus norvegicus, 72 h
Procedure, shortened: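 Toxicity screen: compounds added at 0.1, 1 and 10 µM to PDGF-AA-expanded OPCs in 96-well plates, 3-day incubation at 37 °C, 10% CO2, then alamarBlue 1:10 for 4 h with fluorescence readout. Results set screening doses of 10/2, 2/0.4 or 0.4/0.08 µM.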

[2] = MBP expression relative to quetiapine, NCC library screen
[3] = test compound at 0.4 uM, MBP expression relative to quetiapine, NCC library screen, read-out: 0.4 uM (% Quet)
[4] = alamarBlue viability of expanded OPCs, compound at 0.1 µM, relative to DMSO control
[5] = alamarBlue viability of expanded OPCs, compound at 1 µM, relative to DMSO control
[6] = alamarBlue viability of expanded OPCs, compound at 10 µM, relative to DMSO control
[7] = test compound at 2 uM, NCC library screen, relative to quetiapine, read-out: 2 uM (% Quet)
[8] = test compound at 10 uM, NCC library screen, relative to quetiapine, read-out: 10 uM (% Quet)
[9] = 2 uM test compound, relative to quetiapine, read-out: OL differentiation, 2 uM (% Quet)
[10] = 10 uM test compound, relative to quetiapine, read-out: OL differentiation, 10 uM (% Quet)
[11] = read-out: 0.1 µM (% DMSO), alamarBlue viability of expanded OPCs, compound at 0.1 µM, sheet All Tox data
[12] = read-out: 1 µM (% DMSO), alamarBlue viability of expanded OPCs, compound at 1 µM, sheet All Tox data
[13] = read-out: 10 µM (% DMSO), alamarBlue viability of expanded OPCs, compound at 10 µM, sheet All Tox data
[14] = test compound at 2 uM, MBP expression relative to quetiapine, NCC library screen, read-out: 2 uM (% Quet)
[15] = 0.4 uM test compound, relative to quetiapine, read-out: OL differentiation, 0.4 uM (% Quet)
[16] = test compound at 10 uM, MBP expression relative to quetiapine, NCC library screen, read-out: 10 uM (% Quet)
[17] = read-out: 0.1 µM (% DMSO), alamarBlue viability, NCC library compound at 0.1 µM, sheet "All Tox data"
[18] = read-out: 1 µM (% DMSO), alamarBlue viability, NCC library compound at 1 µM, sheet "All Tox data"
[19] = read-out: 10 µM (% DMSO), alamarBlue viability, NCC library compound at 10 µM, sheet "All Tox data"

| SMILES | 0.1 µM (% DMSO) (expanded OPCs; [4]) | 1 µM (% DMSO) (expanded OPCs; [5]) | 10 µM (% DMSO) (expanded OPCs; [6]) | activation at 2 µM [1, 9] | activation at 10 µM [1, 10] | viability at 0.1 µM (expanded OPCs; [11]) | viability at 1 µM (expanded OPCs; [12]) | viability at 10 µM (expanded OPCs; [13]) | further results |
| --- | --- | --- | --- | --- | --- | --- | --- | --- | --- |
| CCOC(=O)C1=C(C)NC(C)=C(C(=O)OC)C1c1cccc(Cl)c1Cl (stereo not drawn) [Felodipine] | 85.5 % DMSO | 62.8 % DMSO | 18.3 % DMSO |  |  |  |  |  | activation at 0.08 µM [1, 2]: -8.1%; activation at 0.4 µM [1, 3]: 0.8% |
| CC(C)OC(=O)C(C)(C)Oc1ccc(C(=O)c2ccc(Cl)cc2)cc1 [Fenofibrate] | 85.2 % DMSO | 87.6 % DMSO | 103.9 % DMSO |  |  |  |  |  | activation at 2 µM [1, 7]: 31.5%; activation at 10 µM [1, 8]: -62.3% |
| Oc1ccc(C2CNCCc3c2cc(O)c(O)c3Cl)cc1 (stereo not drawn) [Fenoldopam] |  |  |  | -32.3% | -79.8% | 106% | 97.4% | 75.9% |  |
| C[N+]1(CCC(C(N)=O)(c2ccccc2)c2ccccc2)CCCCC1 [Fenpiverinium] |  |  |  | -23.8% | -19.5% | 93.3% | 96.9% | 101% |  |
| CC(C)(C)NC(=O)[C@H]1CC[C@H]2[C@@H]3CC[C@H]4NC(=O)C=C[C@]4(C)[C@H]3CC[C@]12C [Finasteride] |  |  |  | -14.4% | -17.4% | 83.3% | 85.8% | 85.3% |  |
| O=C(NCC1CCCCN1)c1cc(OCC(F)(F)F)ccc1OCC(F)(F)F (stereo not drawn) [Flecainide] | 64.1 % DMSO | 9.0 % DMSO | 7.7 % DMSO |  |  |  |  |  | activation at 0.08 µM [1, 2]: 2.3% |
| O=c1[nH]c(=O)n([C@H]2C[C@H](O)[C@@H](CO)O2)cc1F [Floxuridine] | 65.0 % DMSO | 64.9 % DMSO | 67.9 % DMSO |  |  |  |  |  | activation at 0.4 µM [1, 3]: -13.5%; activation at 2 µM [1, 14]: -23.6% |
| COC(=O)Nc1nc2cc(C(=O)c3ccc(F)cc3)ccc2[nH]1 [Flubendazole] |  |  |  | -188% |  | 74.4% | 69.3% | 43.7% | activation at 0.4 µM [1, 15]: -62.9% |
| OC(Cn1cncn1)(Cn1cncn1)c1ccc(F)cc1F [Fluconazole] | 89.6 % DMSO | 88.1 % DMSO | 92.1 % DMSO |  |  |  |  |  | activation at 2 µM [1, 14]: 0.9%; activation at 10 µM [1, 16]: -44.2% |
| Nc1[nH]c(=O)ncc1F [Flucytosine] |  |  |  | -1.1% | -1% | 98.2% | 90.7% | 99.4% |  |
| Nc1nc(F)nc2c1ncn2[C@@H]1O[C@H](CO)[C@@H](O)[C@@H]1O [Fludarabine] | 91.2 % DMSO | 88.7 % DMSO | 77.9 % DMSO |  |  |  |  |  | activation at 2 µM [1, 14]: 18.7%; activation at 10 µM [1, 16]: -12.6% |
| CCOC(=O)c1ncn2c1CN(C)C(=O)c1cc(F)ccc1-2 [Flumazenil] |  |  |  | -7.2% | -31.7% | 84.8% | 88.2% | 95.5% |  |
| CC1(C)O[C@@H]2C[C@H]3[C@@H]4C[C@H](F)C5=CC(=O)C=C[C@]5(C)[C@@]4(F)[C@@H](O)C[C@]3(C)[C@]2(C(=O)CO)O1 [Fluocinolone Acetonide] |  |  |  |  |  |  |  |  | activation at 2 µM [1, 7]: 12.9%; activation at 10 µM [1, 8]: 9.2%; viability at 0.1 µM (expanded OPCs; [17]): 116%; viability at 1 µM (expanded OPCs; [18]): 118%; viability at 10 µM (expanded OPCs; [19]): 111% |
| CC(=O)OCC(=O)[C@@]12OC(C)(C)O[C@@H]1C[C@H]1[C@@H]3C[C@H](F)C4=CC(=O)C=C[C@]4(C)[C@@]3(F)[C@@H](O)C[C@@]12C [Fluocinonide] | 108.3 % DMSO | 102.9 % DMSO | 80.4 % DMSO |  |  |  |  |  | activation at 2 µM [1, 14]: 12.4%; activation at 10 µM [1, 16]: -24.4% |
| CC(=O)[C@@]1(O)CC[C@H]2[C@@H]3C[C@H](C)C4=CC(=O)C=C[C@]4(C)[C@@]3(F)[C@@H](O)C[C@@]21C [Fluorometholone] | 112.5 % DMSO | 98.3 % DMSO | 86.2 % DMSO |  |  |  |  |  | activation at 2 µM [1, 14]: 9.3%; activation at 10 µM [1, 16]: -24.3% |
| CNCCC(Oc1ccc(C(F)(F)F)cc1)c1ccccc1 (stereo not drawn) [Fluoxetine hydrochloride] | 77.4 % DMSO | 42.2 % DMSO | 7.9 % DMSO |  |  |  |  |  | activation at 0.08 µM [1, 2]: 13%; activation at 0.4 µM [1, 3]: 10.7% |
| CN1CCN(C2=Nc3cc(F)ccc3Cc3ccccc32)CC1 [Fluperlapine] |  |  |  |  |  |  |  |  | activation at 0.4 µM ([1]; test compound at 0.4 uM, NCC library screen, relative to quetiapine, read-out: 0.4 uM (% Quet)): -10.3%; activation at 2 µM [1, 7]: -16.2%; viability at 0.1 µM (expanded OPCs; [17]): 78.1%; viability at 1 µM (expanded OPCs; [18]): 64.8%; viability at 10 µM (expanded OPCs; [19]): 32.2% |
| CC(C(=O)O)c1ccc(-c2ccccc2)c(F)c1 (stereo not drawn) [Flurbiprofen] |  |  |  | -3.6% | 24.6% | 95.9% | 103% | 91.2% | activation at 2 µM [1, 7]: 1.8%; activation at 10 µM [1, 8]: -6.1%; viability at 0.1 µM (expanded OPCs; [17]): 91.1%; viability at 1 µM (expanded OPCs; [18]): 88.1%; viability at 10 µM (expanded OPCs; [19]): 89.4% |
| CC(C)C(=O)Nc1ccc([N+](=O)[O-])c(C(F)(F)F)c1 [Flutamide] | 88.5 % DMSO | 91.4 % DMSO | 103.8 % DMSO |  |  |  |  |  | activation at 2 µM [1, 7]: 2.7%; activation at 10 µM [1, 8]: -38.5% |
| C[C@@H]1C[C@H]2[C@@H]3C[C@H](F)C4=CC(=O)C=C[C@]4(C)[C@@]3(F)[C@@H](O)C[C@]2(C)[C@@]1(O)C(=O)SCF [Fluticasone] |  |  |  | 14.2% | -38.8% | 103% | 106% | 112% |  |
| CC(C)n1c(/C=C/C(O)CC(O)CC(=O)O)c(-c2ccc(F)cc2)c2ccccc21 (stereo not drawn) [Fluvastatin] | 96.9 % DMSO | 53.3 % DMSO | 9.3 % DMSO |  |  |  |  |  | activation at 0.08 µM [1, 2]: -66.1%; activation at 0.4 µM [1, 3]: -73.4% |
| COCCCC/C(=N\OCCN)c1ccc(C(F)(F)F)cc1 [Fluvoxamine] |  |  |  | 23.1% |  | 79.1% | 67.7% | 40% | activation at 0.4 µM [1, 15]: 3.3% |
| Nc1nc2ncc(CNc3ccc(C(=O)N[C@@H](CCC(=O)O)C(=O)O)cc3)nc2c(=O)[nH]1 [Folic acid] | 110.4 % DMSO | 104.7 % DMSO | 104.5 % DMSO |  |  |  |  |  | activation at 2 µM [1, 7]: -16.1%; activation at 10 µM [1, 8]: -12.9% |
| NS(=O)(=O)c1cc(C(=O)O)c(NCc2ccco2)cc1Cl [Furosemide] | 87.5 % DMSO | 91.0 % DMSO | 97.3 % DMSO |  |  |  |  |  | activation at 2 µM [1, 7]: 6%; activation at 10 µM [1, 8]: -6% |
| COC(=O)N1CCN(C(=O)Cc2ccc(Cl)c(Cl)c2)C(CN2CCCC2)C1 (stereo not drawn) [GR 89696] |  |  |  |  |  |  |  |  | 2 uM (% Quet) ([1]; test compound at 2 uM, NCC library screen, relative to quetiapine): 34.9 % Quet; 10 uM (% Quet) ([1]; test compound at 10 uM, NCC library screen, relative to quetiapine): 63.5 % Quet; 0.1 µM (% DMSO) (expanded OPCs; alamarBlue viability, NCC library compound at 0.1 µM, sheet "All Tox data"): 94.6 % DMSO; 1 µM (% DMSO) (expanded OPCs; alamarBlue viability, NCC library compound at 1 µM, sheet "All Tox data"): 83.7 % DMSO; 10 µM (% DMSO) (expanded OPCs; alamarBlue viability, NCC library compound at 10 µM, sheet "All Tox data"): 70.7 % DMSO |
| CCOC(=O)c1ccc(OC(=O)CCCCCNC(=N)N)cc1 [Gabexate] |  |  |  | 12.6% | 7.2% | 105% | 109% | 123% |  |
| COc1ccc2c3c1O[C@H]1C[C@@H](O)C=C[C@@]31CCN(C)C2 [Galantamine] |  |  |  | 14.9% | 16.4% | 86.2% | 81.7% | 81.5% |  |
| Nc1nc(O)c2ncn(COC(CO)CO)c2n1 [Ganciclovir] | 103.0 % DMSO | 100.7 % DMSO | 106.5 % DMSO |  |  |  |  |  | activation at 2 µM [1, 14]: 3.8%; activation at 10 µM [1, 16]: -9.7% |
